Measured values: PubChem BioAssay (NCI)
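Growth conditions: 96-well plates. Treatment: test compound, 48 hours, 5 concentrations. Analysis: linear interpolation between bracketing concentrations; unreached endpoints set to highest concentration. TGI is the concentration that stops growth completely.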

How the values were obtained:
Assay in all cases: NCI-60 cell line screen, 48 h
[1] = test system: 786-0 renal
[2] = test system: A498 renal
[3] = test system: A549 NSCLC
[4] = test system: ACHN renal
[5] = test system: BT-549 breast
[6] = test system: CAKI-1 renal
[7] = test system: CCRF-CEM leukemia
[8] = test system: COLO 205 colon
[9] = test system: DMS 114 small cell lung
[10] = test system: DMS 273 small cell lung
[11] = test system: DU-145 prostate
[12] = test system: EKVX NSCLC
[13] = test system: HCC-2998 colon
[14] = test system: HCT-116 colon
[15] = test system: HCT-15 colon
[16] = test system: HL-60(TB) leukemia
[17] = test system: HOP-62 NSCLC
[18] = test system: HOP-92 NSCLC
[19] = test system: HS 578T breast
[20] = test system: HT29 colon
[21] = test system: IGROV1 ovarian
[22] = test system: K-562 leukemia
[23] = test system: KM12 colon
[24] = test system: KM20L2 colon
[25] = test system: LOX IMVI melanoma
[26] = test system: LXFL 529 NSCLC
[27] = test system: M14 melanoma
[28] = test system: MALME-3M melanoma
[29] = test system: MCF7 breast
[30] = test system: MDA-MB-231 breast
[31] = test system: MDA-MB-435
[32] = test system: MDA-N
[33] = test system: MOLT-4 leukemia
[34] = test system: NCI-H226 lung
[35] = test system: NCI-H23 lung
[36] = test system: NCI-H460 lung
[37] = test system: NCI-H522 lung
[38] = test system: NCI/ADR-RES ovarian
[39] = test system: OVCAR-3 ovarian
[40] = test system: OVCAR-4 ovarian
[41] = test system: OVCAR-5 ovarian
[42] = test system: OVCAR-8 ovarian
[43] = test system: PC-3 prostate
[44] = test system: RPMI-8226 leukemia
[45] = test system: RXF 393 renal
[46] = test system: SF-268 CNS
[47] = test system: SF-295 CNS
[48] = test system: SF-539 CNS
[49] = test system: SK-MEL-2 melanoma
[50] = test system: SK-MEL-28 melanoma
[51] = test system: SK-MEL-5 melanoma
[52] = test system: SK-OV-3 ovarian
[53] = test system: SN12C renal
[54] = test system: SNB-19 CNS
[55] = test system: SNB-75 CNS
[56] = test system: SNB-78 CNS
[57] = test system: SR leukemia
[58] = test system: SW-620 colon
[59] = test system: T-47D breast
[60] = test system: TK-10 renal
[61] = test system: U251 CNS
[62] = test system: UACC-257 melanoma
[63] = test system: UACC-62 melanoma
[64] = test system: UO-31 renal
[65] = test system: DLD-1 colon
[66] = test system: M19-MEL melanoma

With `O=C(O)CCSC(=S)Nc1ccc([N+](=O)[O-])cc1` the TGI [1] was > 100 µM, the TGI [2] was > 100 µM and the TGI [3] was > 100 µM. The TGI [4] was > 83 µM, the TGI [5] was > 100 µM and the TGI [6] was > 100 µM. The TGI [7] was > 68.2 µM, the TGI [8] was > 100 µM and the TGI [9] was > 100 µM. The TGI [10] was > 100 µM, the TGI [11] was > 100 µM and the TGI [12] was > 100 µM. For the same compound, the TGI [13] was > 100 µM, the TGI [14] was > 100 µM and the TGI [15] was > 100 µM. For the same compound, the TGI [16] was 48.6 µM, the TGI [17] was > 100 µM and the TGI [18] was 68.9 µM. The TGI [19] was > 100 µM, the TGI [20] was > 100 µM and the TGI [21] was > 100 µM. For the same compound, the TGI [22] was > 63 µM, the TGI [23] was > 100 µM and the TGI [24] was > 100 µM. The TGI [25] was > 75.7 µM, the TGI [26] was > 100 µM and the TGI [27] was > 100 µM. For the same compound, the TGI [28] was > 100 µM, the TGI [29] was > 100 µM and the TGI [30] was > 100 µM. For the same compound, the TGI [31] was 61.3 µM, the TGI [32] was 58.4 µM and the TGI [33] was > 68 µM. For the same compound, the TGI [34] was > 100 µM, the TGI [35] was > 100 µM and the TGI [36] was > 100 µM. For the same compound, the TGI [37] was > 68 µM, the TGI [38] was > 100 µM and the TGI [39] was > 87.8 µM. The TGI [40] was > 100 µM, the TGI [41] was > 100 µM and the TGI [42] was > 100 µM. The TGI [43] was > 100 µM, the TGI [44] was > 77.2 µM and the TGI [45] was > 100 µM. For the same compound, the TGI [46] was > 100 µM, the TGI [47] was > 100 µM and the TGI [48] was > 75.5 µM. For the same compound, the TGI [49] was > 100 µM, the TGI [50] was > 100 µM and the TGI [51] was 34.5 µM. For the same compound, the TGI [52] was > 100 µM, the TGI [53] was > 100 µM and the TGI [54] was > 100 µM. The TGI [55] was > 100 µM, the TGI [56] was > 100 µM and the TGI [57] was 52.9 µM. For the same compound, the TGI [58] was > 100 µM, the TGI [59] was > 100 µM and the TGI [60] was > 100 µM. The TGI [61] was > 100 µM, the TGI [62] was 55.1 µM and the TGI [63] was 46.7 µM. The TGI [64] was > 100 µM.

`CCOC(=O)C(C(=O)OCC)=c1sc(=C(C(=O)OCC)C(=O)OCC)s1` was tested, and the TGI [1] was > 100 µM, the TGI [3] was > 100 µM and the TGI [4] was > 100 µM. The TGI [6] was > 100 µM, the TGI [7] was > 100 µM and the TGI [8] was > 100 µM. The TGI [65] was > 100 µM, the TGI [10] was > 100 µM and the TGI [12] was > 100 µM. The TGI [13] was > 100 µM, the TGI [15] was > 100 µM and the TGI [16] was > 100 µM. For the same compound, the TGI [17] was > 100 µM, the TGI [18] was > 100 µM and the TGI [20] was > 100 µM. For the same compound, the TGI [21] was > 100 µM, the TGI [22] was > 100 µM and the TGI [23] was > 100 µM. For the same compound, the TGI [24] was > 100 µM, the TGI [25] was > 100 µM and the TGI [26] was > 100 µM. For the same compound, the TGI [27] was > 100 µM, the TGI [66] was > 100 µM and the TGI [28] was > 100 µM. The TGI [33] was > 100 µM, the TGI [35] was > 100 µM and the TGI [36] was > 100 µM. The TGI [37] was > 100 µM, the TGI [39] was > 100 µM and the TGI [40] was > 100 µM. For the same compound, the TGI [41] was > 100 µM, the TGI [42] was > 100 µM and the TGI [44] was > 100 µM. For the same compound, the TGI [45] was > 100 µM, the TGI [46] was > 100 µM and the TGI [47] was > 100 µM. The TGI [49] was > 100 µM, the TGI [50] was > 100 µM and the TGI [51] was > 100 µM. For the same compound, the TGI [52] was > 100 µM, the TGI [53] was > 100 µM and the TGI [55] was > 100 µM. The TGI [56] was > 100 µM, the TGI [58] was > 100 µM and the TGI [60] was > 100 µM. For the same compound, the TGI [62] was > 100 µM and the TGI [63] was > 100 µM.
